Experiment [1] concerns PAF-Induced Bronchoconstriction. As to the kind of experiment: PAF Induced Bronchoconstriction Assay. The class given is in vivo, guinea pig. The following applies: for Percent Inhib. of PAF-Induced Bronchoconstriction, mg/Kg i.v.: i.v. (dose not given), 1 minute pretreatment, PAF 1.0 μg/kg i.v.; for inhibition in vivo at 50 mg/kg: Cavia porcellus, po, 50 mg/Kg p.o., 2-hour pretreatment, read-out: Percent Inhib. of PAF-Induced Bronchoconstriction, 50 mg/Kg p.o. On the procedure:
PAF Induced Bronchoconstriction Assay
Male animals (Hartlet Strain 400-500 g) were anesthetized with urethane (2 g/kg. i.p.). Each animals' trachea was cannulated and the guinea pigs were repirated using a Harvard small animal rodent respirator (3.0 cc stroke volume, 40 breaths per min.). Tracheal pressure was recorded from a cannula inserted in the trachea and connected to a Statham Pressure Transducer.
The jugular vein was cannulated for administering compounds. Spontaneous breathing was arrested with succinylcholine (1.2 mg/kg. i.v.) administered 2 minutes prior to intravenous injection of platelet activating factor (PAF).
For, the intravenous testing, the guinea pig is given a 5-minute pretreatment with propranolol at a dose of 0.1 mg/kg intravenously. The test compound is administered with a 1 minute pretreatment prior to intravenous challenge with PAF. The animal is than challenged with a 1.0 μg/kg intravenous dose of PAF and the change is tracheal pressure is measured.
For the oral testing, the procedure includes a 2-hour pretreatment period with the test compound administered through an oral gavage tube. Propranolol or succinylcholine and PAF are administered intravenously, and the change in tracheal pressure measured.
The change is tracheal pressure is determined by subtracting the steady state baseline achieved after administration of succinylcholine from the peak bronchoconstriction seen after challenge with PAF. The mean is calculated for each test compound and compared to the mean of the control animals to give the percent inhibition of bronchoconstriction. The standard error is calcuated as the standard error of the mean.

The target in experiment [2] is T1, PAF Binding, dog platelets (Canis lupus familiaris, UniProt A0A8I3NSH0).
T1 construct: Washed platelets were prepared by resuspending the platelet pellet once with PBS containing 1 mM EDTA; from tissue; host or cells: washed platelets from dog blood
T1 sequence (A0A8I3NSH0 1-343): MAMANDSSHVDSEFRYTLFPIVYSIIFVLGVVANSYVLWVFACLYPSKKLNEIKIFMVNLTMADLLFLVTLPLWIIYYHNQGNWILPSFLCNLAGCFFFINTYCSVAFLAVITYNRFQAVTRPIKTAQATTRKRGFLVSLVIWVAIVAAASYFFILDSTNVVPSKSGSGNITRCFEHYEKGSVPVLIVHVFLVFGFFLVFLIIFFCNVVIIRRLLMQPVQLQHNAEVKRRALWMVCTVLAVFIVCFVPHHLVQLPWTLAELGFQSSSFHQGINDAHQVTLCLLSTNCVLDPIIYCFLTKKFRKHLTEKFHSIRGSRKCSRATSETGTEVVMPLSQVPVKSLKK
The experiment in a line: PAF Binding Assay (inhibition of 3H-PAF binding to washed dog platelets). On the procedure:
The binding assay was done in 400 μl polyethylene microcentrifuge tubes (Beckman) containing 50 μl of an oil mixture of 2 parts Siliconol AR200 (Serva): 1 part Silicone Fluid (Arthur H. Thomas). Buffer, standards, or analogs (150 μl total volume) were added to the tubes. Radiolabelled ^3 H-PAF (50 μl) was then added to the tubes. The reaction was started by the addition of 50 μl of dog platelets (2×10^7 platelets). The tubes were capped, inverted several times to mix, and incubated for 10 minutes at room temperature. The platelets were separated from the incubation mixture by centrifuging 1 minute in a Beckman Microfuge B centrifuge. The tip of the microfuge tube was cut off, and the platelets were washed out of the tip with 200 μl of 50% methanol (Burdick and Jackson). Aquasol (NEN, 10 ml) was added and the radioactivity in the samples was determined using an LS 8100 Beckman liquid scintillation counter linked to a Techtran tape recorder. Data was processed through an in-house computer system. Alternatively, radioactivity was determined using a Searle Mark III liquid scintillation counter linked to a Iso-Data microprocessor.
(b) Preparation of Platelets
Blood was collected from anesthesized or unanesthesized dogs into 50 ml plastic centrifuge tubes containing 3.8% sodium citrate as the anticoagulant (1 volume of citrate/9 volumes of blood). The red cells were removed by centrifugation for 15 minutes at 600 rpm (100-125 g) at room temperature. An aliquot of the supernatant platelet rich plasma (PRP) was saved for cell counting and the remainder was acidified to PH 6.5 with 0.15M citric acid. The platelet pellet was obtained after a 10 minute centrifugation at 2000 rpm (1000 g) at room temperature. Washed platelets were prepared by resuspending the platelet pellet once with PBS containing 1 mM EDTA, centrifuging as noted, and then resuspending the platelets in 0.1% BSA-PBS. An aliquot of the washed platelets was counted. Platelets used for binding assays were diluted to 2×10^7 platelets/assay tube (4×10^8 platelets/ml). Platelet counting was done using a Royco Cell-Crit 921.

[3] abbreviates: dog platelets, 3H-PAF, 10 minutes at room temperature, read-out: Inhib of PAF Binding IC50.

Read-outs that look alike come from different tables or passages of the source.

As usually defined, the IC50 is the concentration that gives 50% inhibition.

As for `CCCC(CCCc1cccnc1)NC(=O)/C=C/C=C(c1ccc(OC)cc1)c1ccc(OC)cc1` (racemic) [[R,S-(E)]-5,5-bis(4-methoxyphenyl)-N-[1-propyl-4-(3-pyridinyl)butyl]-2,4-pentadienamide], in experiment [1], the “Percent Inhib. of PAF-Induced Bronchoconstriction, mg/Kg i.v.” value was 24 ± 13%. In experiment [2] (setting [3]), the IC50 was greater than 1000 nM.
With `CCC(CCCc1cccnc1)NC(=O)/C=C/C=C(c1ccc(OC)cc1)c1ccc(OC)cc1` (racemic) [[R,S-(E)]-N-1-ethyl-4-(3-pyridinyl)butyl]-5,5-bis(4-methoxyphenyl)-2,4-pentadienamide], in experiment [1], the inhibition in vivo at 50 mg/kg stood at 99 ± 1% and the “Percent Inhib. of PAF-Induced Bronchoconstriction, mg/Kg i.v.” value was 86 ± 8%. Further, the half-inhibitory concentration (IC50) in experiment [2] (setting [3]) came out at 90 nM.
Take `COc1ccc(C(=C/C=C/C(=O)NC(CCCc2cccnc2)c2ccc(Br)cc2)c2ccc(OC)cc2)cc1` (racemic) [[R,S-(E)]-N-[1-(4-bromophenyl)-4-(3-pyridinyl)butyl]-5,5-bis(4-methoxyphenyl)2.4-pentadienamide]: the “Percent Inhib. of PAF-Induced Bronchoconstriction, mg/Kg i.v.” value in experiment [1] came to 6 ± 13%. The IC50 in experiment [2] (setting [3]) was greater than 1000 nM.
For `CCCCC(CCCc1cccnc1)NC(=O)/C=C/C=C(c1ccc(OC)cc1)c1ccc(OC)cc1` (racemic) [[R,S-(E)]-N-[1-butyl-4-(3-pyridinyl)butyl]-5,5-bis(4-methoxyphenyl)-2,4-pentadienamide], in that order: 42 ± 7% and greater than 1000 nM.
In the case of `COc1ccc(C(=C/C=C/C(=O)NC(CCCc2cccnc2)C2CCCCC2)c2ccc(OC)cc2)cc1` (racemic) [[R,S-(E)]-N-[1-cyclohexyl-4-(3-pyridinyl)butyl]-5,5-bis(4-methoxyphenyl)-2,4-pentadienamide], the “Percent Inhib. of PAF-Induced Bronchoconstriction, mg/Kg i.v.” value in experiment [1] stood at 11 ± 15%. Also, the IC50 in experiment [2] (setting [3]) is greater than 1000 nM.
For `COc1ccc(C(=C/C=C/C(=O)NC(CCCc2cccnc2)C2CCCC2)c2ccc(OC)cc2)cc1` (racemic) [[R,S-(E)]-N-[1-cyclopentyl-4-(3-pyridinyl)butyl]-5,5-bis-(4-methoxyphenyl)-2,4-pentadienamide], in that order: 19 ± 14% and greater than 1000 nM.
For the compound `COc1ccc(C(=C/C=C/C(=O)NC(CCCc2cccnc2)C2CC2)c2ccc(OC)cc2)cc1` (racemic) [[R,S-(E)]-N-[1-cyclopropyl-4-(3-pyridinyl)butyl]-5,5-bis-(4-methoxyphenyl)-2,4-pentadienamide], in experiment [1], the inhibition in vivo at 50 mg/kg came to 99 ± 0.3% and the “Percent Inhib. of PAF-Induced Bronchoconstriction, mg/Kg i.v.” value is 98 ± 1%. Further, the IC50 in experiment [2] (setting [3]) was 60 nM.
As for `CCCCC/C(=C\C=C\C(=O)NC(C)CCCc1cccnc1C)c1ccc(OC)cc1` (racemic) [[R,S-(E,E)]-5-(4-methoxyphenyl)-N-[1-methyl-4-(2-methyl-3-pyridinyl)butyl]-2,4-decadienamide], the “Percent Inhib. of PAF-Induced Bronchoconstriction, mg/Kg i.v.” value in experiment [1] is reported as 77 ± 5%. In addition, the IC50 in experiment [2] (setting [3]) was 5 nM.
The matching figures for `COc1ccc(/C(=C/C=C/C(=O)NCCCCc2cccnc2)c2ccccc2OC)cc1` [(2E,4Z)-5-(2-methoxyphenyl)-5-(4-methoxyphenyl)-N-[4-(3-pyridinyl)butyl]-2,4-pentadienamide]: 36 ± 6% and 55 nM.
Turning to `COc1ccc(/C(=C/C=C/C(=O)NCCCCc2cccnc2)c2cccnc2)cc1` [(2E,4Z)-5-(4-methoxyphenyl)-5-(3-pyridinyl)-N-[4-(3-pyridinyl)butyl]-2,4-pentadienamide], in experiment [1], the inhibition in vivo at 50 mg/kg worked out at 39 ± 8% and the “Percent Inhib. of PAF-Induced Bronchoconstriction, mg/Kg i.v.” value stood at 78 ± 10%. Further, the half-inhibitory concentration (IC50) in experiment [2] (setting [3]) amounted to 50 nM.
`CCCCC/C(=C/C=C/C(=O)NCCCCc1cccnc1)c1ccc(OC)cc1` [(2E,4Z)-5-(4-methoxyphenyl)-N-[4-(3-pyridinyl)butyl]-2,4-decadienamide]: the “Percent Inhib. of PAF-Induced Bronchoconstriction, mg/Kg i.v.” value in experiment [1] is on record as 68 ± 11%. Besides, the IC50 in experiment [2] (setting [3]) is 40 nM.
`COc1ccccc1C(=C/C=C/C(=O)NCCCCc1cccnc1)c1ccccc1OC` [(E)-5,5-bis (2-methoxyphenyl)-N-[4-(3-pyridinyl)butyl]-2,4-pentadienamide]: in experiment [1], the “Percent Inhib. of PAF-Induced Bronchoconstriction, mg/Kg i.v.” value came to 40 ± 2%. Also, the IC50 in experiment [2] (setting [3]) is 40 nM.
In the case of `COc1ccc(C(=C/C=C/C(=O)NCCCCc2cccnc2)c2ccc(OC)c(OC)c2)cc1OC` [(E)-5,5-bis(3,4-Dimethoxyphenyl)-N-[4-(3-pyridinyl)butyl]-2,4-pentadienamide], in experiment [1], the inhibition in vivo at 50 mg/kg was determined as 71 ± 2% and the “Percent Inhib. of PAF-Induced Bronchoconstriction, mg/Kg i.v.” value was 78 ± 6%. Besides, in experiment [2] (setting [3]), the half-inhibitory concentration (IC50) amounted to 55 nM.
Consider `O=C(/C=C/C=C(c1cccc([N+](=O)[O-])c1)c1cccc([N+](=O)[O-])c1)NCCCCc1cccnc1` [(E)-5,5-bis(3-nitrophenyl)-N-[4-(3-pyridinyl)butyl)-2,4-pentadienamide], for which the “Percent Inhib. of PAF-Induced Bronchoconstriction, mg/Kg i.v.” value in experiment [1] is recorded as 18 ± 2%. For the same compound, the concentration for half-maximal inhibition (IC50) in experiment [2] amounted to 115 nM.
Take `COc1ccc(C(=C/C=C/C(=O)NCCCc2ccncc2)c2ccc(OC)cc2)cc1` [(E)-5,5-bis(4-methoxyphenyl)-N-[3-(4-pyridinyl)propyl]-2,4-pentadienamide]: the “Percent Inhib. of PAF-Induced Bronchoconstriction, mg/Kg i.v.” value in experiment [1] was found to be 8 ± 12%. In addition, in experiment [2] (setting [3]), the IC50 stood at 100 nM.
The matching figures for `COc1ccc(C(=C/C=C/C(=O)Nc2ccc(Cc3cccnc3)cc2)c2ccc(OC)cc2)cc1` [(E)-5,5-bis(4-methoxyphenyl)-N-[4-(3pyridinylmethyl)phenyl]-2,4-pentadienamide]: 3 ± 7% and 250 nM.
The matching figures for `COc1ccc(C(=C/C=C/C(=O)NCCCCCc2ccccn2)c2ccc(OC)cc2)cc1` [(E)-5,5-bis(4-methoxyphenyl)-N-[5-(2-pyridinyl)pentyl]-2,4-pentadienamide]: 27 ± 6% and 1000 nM.
For `COc1ccc(C(=C/C=C/C(=O)NC(CCCc2cccnc2)CCCc2cccnc2)c2ccc(OC)cc2)cc1` [(E)-5,5-bis-(4-methoxyphenyl)-N-[1-[3-(3-pyridinyl)propyl]-4-(3-pyridinyl)-butyl]-2,4-pentadienamide], in that order: 50 ± 15% and 500 nM.
Consider `COc1ccc(C(=C/C=C/C(=O)Nc2ccc(-c3cccnc3)cc2)c2ccc(OC)cc2)cc1` [(E)-5,5-bis-(4-methoxyphenyl)-N-[4-(3-pyridinyl)phenyl]-2,4-pentadienamide], for which, in experiment [1], the inhibition in vivo at 50 mg/kg is 84 ± 8% and the “Percent Inhib. of PAF-Induced Bronchoconstriction, mg/Kg i.v.” value came out at 97 ± 1%. Besides, the IC50 in experiment [2] (setting [3]) was 10 nM.
In the case of `COc1ccc(/C(=C\C=C\C(=O)NCCCCc2cccnc2)c2ccccc2OC)cc1` [(E,E)-5-(2-methoxyphenyl)-5-(4-methoxyphenyl)-N-[4-(3-pyridinyl)butyl]-2,4-pentadienamide], in experiment [1], the inhibition in vivo at 50 mg/kg is 21 ± 7% and the “Percent Inhib. of PAF-Induced Bronchoconstriction, mg/Kg i.v.” value is recorded as 80 ± 5%. Further, the IC50 in experiment [2] (setting [3]) was found to be 45 nM.

Values taken from US4788206A, “Pentadieneamides” (Hoffmann-La Roche Inc., priority 1987, dated 1988).
